Biological target: T1, Human PIP4K2C (Homo sapiens, UniProt Q8TBX8)
T1 construct: purchased Eurofins DiscoverX 87-0007-1094
T1 sequence (Q8TBX8 1-421): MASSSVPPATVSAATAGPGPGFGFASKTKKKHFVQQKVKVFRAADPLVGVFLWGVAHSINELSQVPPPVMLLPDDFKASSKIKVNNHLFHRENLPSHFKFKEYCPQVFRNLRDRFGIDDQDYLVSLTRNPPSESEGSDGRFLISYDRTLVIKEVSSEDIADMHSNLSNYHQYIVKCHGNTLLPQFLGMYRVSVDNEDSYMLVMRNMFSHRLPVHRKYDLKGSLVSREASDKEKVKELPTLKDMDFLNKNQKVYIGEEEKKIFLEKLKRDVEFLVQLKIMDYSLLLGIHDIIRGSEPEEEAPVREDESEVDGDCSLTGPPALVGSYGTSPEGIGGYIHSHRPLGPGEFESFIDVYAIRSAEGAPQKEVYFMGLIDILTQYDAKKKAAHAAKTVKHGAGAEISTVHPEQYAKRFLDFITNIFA
Assay: Enzyme binding assay (KINOMEscan), active site-directed competition binding
Settings: 11-point dose response, duplicate, top concentration 5 micromolar; read-out: Pip4k2c Kd: IC50
Method: PIP4K2C binding constants disclosed herein were determined using the proprietary Human PIP4K2C binding assay (Catalog number 87-0007-1094, Eurofins DiscoverX, San Diego, CA). This assay measures active site-directed competition binding to an immobilized ligand (see https://doi.org/10.1038/nbt1068, herein incorporated by reference in its entirety). Experiments were conducted using an 11-point dose response curve, in duplicate, with a top starting concentration of 5 micromolar; the Levenberg-Marquardt algorithm was used to fit a Hill equation to dose-response data to calculate IC50 values (see Table 5).

| Structure (SMILES) | IC50 |
| --- | --- |
| O=C1CCCN1c1cncc(Nc2ncc(Cl)c(-c3cccc(N4CCCC4)c3)n2)c1 [Compound 46, 1-(5-((5-chloro-4-(3-(pyrrolidin-1-yl)phenyl)pyrimidin-2-yl)amino)pyridin-3-yl)pyrrolidin-2-one] | < 500 nM |
| Cc1ccc(-c2ccccc2)cc1-c1nc(Nc2cncc(N3CCCC3=O)c2)ncc1Cl [Compound 10, 1-(5-((5-chloro-4-(4-methyl-[1,1′-biphenyl]-3-yl)pyrimidin-2-yl)amino)pyridin-3-yl)pyrrolidin-2-one] | < 500 nM |
| O=C1CCCN1c1cncc(Nc2ncc(Cl)c(N3CCC(c4ccccc4)C3)n2)c1 (stereo not drawn) [Compound 42, 1-(5-((5-chloro-4-(3-phenylpyrrolidin-1-yl)pyrimidin-2-yl)amino)pyridin-3-yl)pyrrolidin-2-one] | < 500 nM |
| O=C1CCCN1c1cncc(Nc2ncc(Cl)c(-c3cccc(C4CCNCC4)c3)n2)c1 [Compound 26, 1-(5-((5-chloro-4-(3-(piperidin-4-yl)phenyl)pyrimidin-2-yl)amino)pyridin-3-yl)pyrrolidin-2-one] | < 500 nM |
| Cc1ccc(-c2nc(Nc3cncc(N4CCCC4=O)c3)ncc2Cl)cc1-c1ccccc1 [Compound 7, 1-(5-((5-chloro-4-(6-methyl-[1,1′-biphenyl]-3-yl)pyrimidin-2-yl)amino)pyridin-3-yl)pyrrolidin-2-one] | < 500 nM |
| CCCCNC(=O)C1CCCN(c2nc(Nc3cncc(N4CCCC4=O)c3)ncc2Cl)C1 (stereo not drawn) [Compound 109, N-butyl-1-(5-chloro-2-((5-(2-oxopyrrolidin-1-yl)pyridin-3-yl)amino)pyrimidin-4-yl)piperidine-3-carboxamide] | < 500 nM |
| O=C(C1CCCC1)N1CCCC(c2nc(Nc3cncc(N4CCCC4=O)c3)ncc2Cl)C1 (stereo not drawn) [Compound 146, 1-(5-((5-chloro-4-(1-(cyclopentanecarbonyl)piperidin-3-yl)pyrimidin-2-yl)amino)pyridin-3-yl)pyrrolidin-2-one] | < 500 nM |
| CC1CCN(c2nc(Nc3cncc(N4CCCC4=O)c3)ncc2Cl)CC1 [Compound 102, 1-(5-((5-chloro-4-(4-methylpiperidin-1yl)pyrimidin-2-yl)amino)pyridin-3-yl)pyrrolidin-2-one] | < 500 nM |
| O=C1CCCN1c1cncc(Nc2ncc(Cl)c(N3CCC(N4CCCCC4)C3)n2)c1 (stereo not drawn) [Compound 121, 1-(5-((5-chloro-4-(3-(piperidin-1-yl)pyrrolidin-1-yl)pyrimidin-2-yl)amino)pyridin-3-yl)pyrrolidin-2-one] | < 500 nM |
| O=C1CCCN1c1cncc(Nc2ncc(Cl)c(N3CCCC(C4CCCC4)C3)n2)c1 (stereo not drawn) [Compound 131, 1-(5-((5-chloro-4-(3-cyclopentylpiperidin-1-yl)pyrimidin-2-yl)amino)pyridin-3-yl)pyrrolidin-2-one] | < 500 nM |
| CC(=O)N1CCC(c2cccc(-c3nc(Nc4cncc(N5CCCC5=O)c4)ncc3Cl)c2)CC1 [Compound 28, 1-(5-((4-(3-(1-acetylpiperidin-4-yl)phenyl)-5-chloropyrimidin-2-yl)amino)pyridin-3-yl)pyrrolidin-2-one] | < 500 nM |
| CC1CC(C)CN(c2nc(Nc3cncc(N4CCCC4=O)c3)ncc2Cl)C1 (stereo not drawn) [Compound 115, 1-(5-((5-chloro-4-(3,5-dimethylpiperidin-1-yl)pyrimidin-2-yl)amino)pyridin-3-yl)pyrrolidin-2-one] | < 500 nM |
| O=C1CCCN1c1cncc(Nc2ncc(F)c(-c3ccc(=O)n(CC4CC4)c3)n2)c1 [Compound 158, 1-(cyclopropylmethyl)-5-(5-fluoro-2-((5-(2-oxopyrrolidin-1-yl)pyridin-3-yl)amino)pyrimidin-4-yl)pyridin-2(1H)-one] | < 500 nM |
| O=C1CCCN1c1cncc(Nc2ncc(Cl)c(-c3ccn(-c4ccccc4)n3)n2)c1 [Compound 143, 1-(5-((5-chloro-4-(1-phenyl-1H-pyrazol-3-yl)pyrimidin-2-yl)amino)pyridin-3-yl)pyrrolidine-2-one] | < 500 nM |
| O=C1CCCN1c1cncc(Nc2ncc(Cl)c(N3CCCCC3C(F)(F)F)n2)c1 (stereo not drawn) [Compound 119, 1-(5-((5-chloro-4-(2-(trifluoromethyl)piperidin-1-yl)pyrimidin-2-yl)amino)pyridin-3-yl)pyrrolidin-2-one] | < 500 nM |
| O=C1CCCN1c1cncc(Nc2ncc(Cl)c(-c3ccc(F)cc3Cl)n2)c1 [Compound 112, 1-(5-((5-chloro-4-(2-chloro-4-fluorophenyl)pyrimidin-2-yl)amino)pyridin-3-yl)pyrrolidin-2-one] | < 500 nM |
| O=C1CCCN1c1cncc(Nc2ncc(Cl)c(N3CCc4ccccc43)n2)c1 [Compound 129, 1-(5-((5-chloro-4-(indolin-1-yl)pyrimidin-2-yl)amino)pyridin-3-yl)pyrrolidin-2-one] | < 500 nM |

| Structure (SMILES) | IC50 |
| --- | --- |
| O=C1CCCN1c1cncc(Nc2ncc(Cl)c(-c3ccc(C4CC4)cc3)n2)c1 [Compound 13, 1-(5-((5-chloro-4-(4-cyclopropylphenyl)pyrimidin-2-yl)amino)pyridin-3-yl)pyrrolidin-2-one] | < 500 nM |
| O=C1CCCN1c1cncc(Nc2ncc(Cl)c(-c3cc(C4CC4)[nH]n3)n2)c1 [Compound 50, 1-(5-((5-chloro-4-(5-cyclopropyl-1H-pyrazol-3-yl)pyrimidin-2-yl)amino)pyridin-3-yl)pyrrolidin-2-one] | < 500 nM |
| O=C1CCCN1c1cncc(Nc2ncc(Cl)c(N3CCC(N4CCCC4)C3)n2)c1 (stereo not drawn) [Compound 37, 1-(5-((4-([1,3′-bipyrrolidin]-1′-yl)-5-chloropyrimidin-2-yl)amino)pyridin-3-yl)pyrrolidin-2-one] | < 500 nM |
| O=C1CCCN1c1cncc(Nc2ncc(Cl)c(-c3cccc(-c4ccc(Cl)c(Cl)c4)c3)n2)c1 [Compound 2, 1-(5-((5-chloro-4-(3′,4′-dichloro-[1,1′-biphenyl]-3-yl)pyrimidin-2-yl)amino)pyridin-3-yl)pyrrolidin-2-one] | < 500 nM |
| CN1CCCC(c2cccc(-c3nc(Nc4cncc(N5CCCC5=O)c4)ncc3Cl)c2)C1 (stereo not drawn) [Compound 33, 1-(5-((5-chloro-4-(3-(1-methylpiperidin-3-yl)phenyl)pyrimidin-2-yl)amino)pyridin-3-yl)pyrrolidin-2-one] | < 500 nM |
| O=C1CCCN1c1cncc(Nc2ncc(Cl)c(-c3cccc(-c4cccnc4)c3)n2)c1 [Compound 16, 1-(5-((5-chloro-4-(3-(pyridin-3-yl)phenyl)pyrimidin-2-yl)amino)pyridin-3-yl)pyrrolidin-2-one] | < 500 nM |
| O=C1CCCN1c1cncc(Nc2ncc(Cl)c(-c3cc(Cl)cc(-c4ccccc4)c3)n2)c1 [Compound 22, 1-(5-((5-chloro-4-(5-chloro-[1,1′-biphenyl]-3-yl)pyrimidin-2-yl)amino)pyridin-3-yl)pyrrolidin-2-one] | < 500 nM |
| O=C1CCCN1c1ccc(Nc2ncc(F)c(-c3cccc(C4CC4)c3)n2)cn1 [Compound 147, 1-(5-((4-(3-cyclopropylphenyl)-5-fluoropyrimidin-2-yl)amino)pyridin-2-yl)pyrrolidin-2-one] | < 500 nM |
| O=C1CCCN1c1cncc(Nc2ncc(Cl)c(C3CCCN(C4CCCC4)C3)n2)c1 (stereo not drawn) [Compound 135, 1-(5-((5-chloro-4-(1-cyclopentylpiperidin-3-yl)pyrimidin-2-yl)amino)pyridin-3-yl)pyrrolidin-2-one] | < 500 nM |
| O=C1CCCN1c1cncc(Nc2ncc(F)c(-c3ccc(=O)n(C4CCC4)c3)n2)c1 [Compound 157, 1-cyclobutyl-5-(5-fluoro-2-((5-(2-oxopyrrolidin-1-yl)pyridin-3-yl)amino)pyrimidin-4-yl)pyridin-2(1H)-one] | < 500 nM |
| O=C1CCCN1c1cncc(Nc2ncc(Cl)c(-c3ccc(F)cc3)n2)c1 [Compound 118, 1-(5-((5-chloro-4-(4-fluorophenyl)pyrimidin-2-yl)amino)pyridin-3-yl)pyrrolidin-2-one] | < 500 nM |
| Cc1ccc(-c2cccc(-c3nc(Nc4cncc(N5CCCC5=O)c4)ncc3Cl)c2)cc1 [Compound 3, 1-(5-((5-chloro-4-(4′-methyl-[1,1′-biphenyl]-3-yl)pyrimidin-2-yl)amino)pyridin-3-yl)pyrrolidin-2-one] | < 500 nM |
| O=C1CCCN1c1cncc(Nc2ncc(Cl)c(N3CCC(C4CCCC4)C3)n2)c1 (stereo not drawn) [Compound 136, 1-(5-((5-chloro-4-(3-cyclopentylpyrrolidin-1-yl)pyrimidin-2-yl)amino)pyridin-3-yl)pyrrolidin-2-one] | < 500 nM |
| CC(=O)N1CCCC(c2nc(Nc3cncc(N4CCCC4=O)c3)ncc2Cl)C1 (stereo not drawn) [Compound 151, 1-(5-((4-(1-acetylpiperidin-3-yl)-5-chloropyrimidin-2-yl)amino)pyridin-3-yl)pyrrolidine-2-one] | < 500 nM |
| O=C1CCCN1c1cncc(Nc2ncc(Cl)c(-c3cccc(-c4cnccn4)c3)n2)c1 [Compound 17, 1-(5-((5-chloro-4-(3-(pyrazin-2-yl)phenyl)pyrimidin-2-yl)amino)pyridin-3-yl)pyrrolidin-2-one] | < 500 nM |
| O=C1CCCN1c1cncc(Nc2ncc(Cl)c(C3CCCN(c4ccccc4)C3)n2)c1 (stereo not drawn) [Compound 141, 1-(5-((5-chloro-4-(1-phenylpiperidin-3-yl)pyrimidin-2-yl)amino)pyridin-3-yl)pyrrolidin-2-one] | < 500 nM |

Source: patent US20260184691A1, “INHIBITORS AND DEGRADERS OF PIP4K PROTEIN” (Larkspur Biosciences, Inc., priority 2022, published 2026)
